Measured values as given in patent US4229204A, “Trifluoromethylphenyl isoxazolyl benzoates” (Monsanto Company, priority 1978, dated 1980).

Tests used:
Type in all cases: in vivo
Johnsongrass [1] = experiment: Pre-emergent herbicidal test; conditions: 11.2 kg/h
Experimental: (§1) The pre-emergent test was conducted as follows:
(§2) A good grade of top soil was placed in aluminum pans and compacted to a depth of three-eighths to one-half inch from the top of the pan. On the top of the soil was placed a predetermined number of seeds or vegetative propagules of various plant species which were pressed into the soil surface. The soil required to level fill the pans after seeding or adding vegetative propagules was weighed into a pan. A known amount of the active ingredient applied in a solvent or as a wettable powder and the soil were thoroughly mixed, and used as a cover layer for prepared pans.
(§3) The herbicidal rating was obtained by means of a fixed scale based on the percent injury of each plant species. The ratings are defined as follows: […]
(§4) The compounds were also tested by utilizing the above procedure on the following plant species: […]

Quackgrass [2] = experiment: Pre-emergent herbicidal test; conditions: 11.2 kg/h
Experimental: as §1, §2, §3, §4

Smartweed [3] = experiment: Pre-emergent herbicidal test
Experimental: as §1, §2, §3, §4

Yellow Nutsedge [4] = experiment: Pre-emergent herbicidal test; conditions: 11.2 kg/h
Experimental: as §1, §2, §3, §4

Downy Brome [5] = experiment: Pre-emergent herbicidal test
Experimental: as §1, §2, §3, §4

Lambsquarters [6] = experiment: Pre-emergent herbicidal test
Experimental: as §1, §2, §3, §4

Morningglory [7] = experiment: Pre-emergent herbicidal test
Experimental: as §1, §2, §3, §4

Barnyardgrass [8] = experiment: Pre-emergent herbicidal test
Experimental: as §1, §2, §3, §4

Canada Thistle [9] = experiment: Pre-emergent herbicidal test; conditions: 11.2 kg/h
Experimental: as §1, §2, §3, §4

Cocklebur [10] = experiment: Pre-emergent herbicidal test
Experimental: as §1, §2, §3, §4

Velvetleaf [11] = experiment: Pre-emergent herbicidal test
Experimental: as §1, §2, §3, §4

Johnsongrass [12] = experiment: Post-emergent herbicidal test; conditions: 4 WAT, 11.2 kg/h
Experimental: (§5) The post-emergent tests were conducted as follows:
(§6) The active ingredients are applied in spray form to two or three week old specimens of various plant species. The spray, a solution or wettable powder suspension containing the appropriate rate of active ingredient to give the desired test rate and a surfactant, is applied to the plants.
as §4

Quackgrass [13] = experiment: Post-emergent herbicidal test; conditions: 4 WAT, 11.2 kg/h
Experimental: as §5, §6, §4

Smartweed [14] = experiment: Post-emergent herbicidal test; conditions: 4 WAT, 11.2 kg/h
Experimental: as §5, §6, §4

Yellow Nutsedge [15] = experiment: Post-emergent herbicidal test; conditions: 4 WAT, 11.2 kg/h
Experimental: as §5, §6, §4

Downy Brome [16] = experiment: Post-emergent herbicidal test; conditions: 4 WAT, 11.2 kg/h
Experimental: as §5, §6, §4

Lambsquarters [17] = experiment: Post-emergent herbicidal test; conditions: 4 WAT, 11.2 kg/h
Experimental: as §5, §6, §4

Morningglory [18] = experiment: Post-emergent herbicidal test; conditions: 4 WAT, 11.2 kg/h
Experimental: as §5, §6, §4

Barnyardgrass [19] = experiment: Post-emergent herbicidal test; conditions: 4 WAT, 11.2 kg/h
Experimental: as §5, §6, §4

Canada Thistle [20] = experiment: Post-emergent herbicidal test; conditions: 4 WAT, 11.2 kg/h
Experimental: as §5, §6, §4

Cocklebur [21] = experiment: Post-emergent herbicidal test; conditions: 4 WAT, 11.2 kg/h
Experimental: as §5, §6, §4

Velvetleaf [22] = experiment: Post-emergent herbicidal test; conditions: 4 WAT, 11.2 kg/h
Experimental: as §5, §6, §4

Soybean = experiment: Pre-emergent herbicidal test; conditions: 4 WAT
Experimental: as §1, §2, §3

Wheat = experiment: Pre-emergent herbicidal test; conditions: 4 WAT
Experimental: as §1, §2, §3

Hemp Sesbania = experiment: Pre-emergent herbicidal test; conditions: 4 WAT
Experimental: as §1, §2, §3

Sorghum = experiment: Pre-emergent herbicidal test; conditions: 4 WAT
Experimental: as §1, §2, §3

Panicum Spp. = experiment: Pre-emergent herbicidal test; conditions: 4 WAT
Experimental: as §1, §2, §3

Rice = experiment: Pre-emergent herbicidal test; conditions: 4 WAT
Experimental: as §1, §2, §3

Sugarbeet = experiment: Pre-emergent herbicidal test; conditions: 4 WAT
Experimental: as §1, §2, §3

Wild Buckwheat = experiment: Pre-emergent herbicidal test; conditions: 4 WAT
Experimental: as §1, §2, §3

Crabgrass = experiment: Pre-emergent herbicidal test; conditions: 4 WAT
Experimental: as §1, §2, §3
Further: ranges in brackets are in %.

CC(C)OC(=O)c1ccccc1-c1cc(-c2cccc(C(F)(F)F)c2)no1 [Example 8, Isopropyl 2-[3-[3-(Trifluoromethyl)Phenyl]-5-Isoxazolyl]Benzoate]
herbicidal rating (Johnsongrass [1]; 2 WAT): 0 (0-24) | herbicidal rating (Quackgrass [2]; 2 WAT): 1 (25-49) | herbicidal rating (Smartweed [3]; 2 WAT, 11.2 kg/h): 0 (0-24) | herbicidal rating (Yellow Nutsedge [4]; 2 WAT): 0 (0-24) | herbicidal rating (Downy Brome [5]; 2 WAT, 11.2 kg/h): 0 (0-24) | herbicidal rating (Lambsquarters [6]; 2 WAT, 11.2 kg/h): 3 (75-100) | herbicidal rating (Morningglory [7]; 2 WAT, 11.2 kg/h): 0 (0-24) | herbicidal rating (Barnyardgrass [8]; 2 WAT, 11.2 kg/h): 0 (0-24) | herbicidal rating (Canada Thistle [9]; 2 WAT): 0 (0-24) | herbicidal rating (Cocklebur [10]; 2 WAT, 11.2 kg/h): 0 (0-24) | herbicidal rating (Velvetleaf [11]; 2 WAT, 11.2 kg/h): 0 (0-24) | herbicidal rating (Johnsongrass [12]): 0 (0-24) | herbicidal rating (Quackgrass [13]): 0 (0-24) | herbicidal rating (Smartweed [14]): 1 (25-49) | herbicidal rating (Yellow Nutsedge [15]): 0 (0-24) | herbicidal rating (Downy Brome [16]): 0 (0-24) | herbicidal rating (Lambsquarters [17]): 2 (50-74) | herbicidal rating (Morningglory [18]): 2 (50-74) | herbicidal rating (Barnyardgrass [19]): 1 (25-49) | herbicidal rating (Canada Thistle [20]): 0 (0-24) | herbicidal rating (Cocklebur [21]): 1 (25-49) | herbicidal rating (Velvetleaf [22]): 0 (0-24)

CCCCCOC(=O)c1ccccc1-c1cc(-c2cccc(C(F)(F)F)c2)no1 [Example 7, n-Pentyl 2-[3-[3-(Trifluoromethyl)Phenyl]-5-Isoxazolyl]Benzoate]
herbicidal rating (Soybean; 0.28 kg/h): 0 (0-24) | herbicidal rating (Soybean; 1.12 kg/h): 0 (0-24) | herbicidal rating (Soybean; 5.60 kg/h): 3 (75-100) | herbicidal rating (Wheat; 0.28 kg/h): 0 (0-24) | herbicidal rating (Wheat; 1.12 kg/h): 1 (25-49) | herbicidal rating (Wheat; 5.60 kg/h): 1 (25-49) | herbicidal rating (Hemp Sesbania; 0.28 kg/h): 0 (0-24) | herbicidal rating (Hemp Sesbania; 1.12 kg/h): 1 (25-49) | herbicidal rating (Hemp Sesbania; 5.60 kg/h): 2 (50-74) | herbicidal rating (Sorghum; 0.28 kg/h): 0 (0-24) | herbicidal rating (Sorghum; 1.12 kg/h): 1 (25-49) | herbicidal rating (Sorghum; 5.60 kg/h): 3 (75-100) | herbicidal rating (Panicum Spp.; 1.12 kg/h): 0 (0-24) | herbicidal rating (Panicum Spp.; 5.60 kg/h): 2 (50-74) | herbicidal rating (Rice; 0.28 kg/h): 1 (25-49) | herbicidal rating (Rice; 1.12 kg/h): 2 (50-74) | herbicidal rating (Rice; 5.60 kg/h): 3 (75-100) | herbicidal rating (Sugarbeet; 0.28 kg/h): 3 (75-100) | herbicidal rating (Sugarbeet; 1.12 kg/h): 2 (50-74) | herbicidal rating (Sugarbeet; 5.60 kg/h): 2 (50-74) | herbicidal rating (Wild Buckwheat; 0.28 kg/h): 3 (75-100) | herbicidal rating (Wild Buckwheat; 1.12 kg/h): 2 (50-74) | herbicidal rating (Wild Buckwheat; 5.60 kg/h): 2 (50-74) | herbicidal rating (Crabgrass; 0.28 kg/h): 0 (0-24) | herbicidal rating (Crabgrass; 1.12 kg/h): 0 (0-24) | herbicidal rating (Crabgrass; 5.60 kg/h): 3 (75-100) | herbicidal rating (Johnsongrass [1]; 4 WAT): 1 (25-49) | herbicidal rating (Quackgrass [2]; 4 WAT): 2 (50-74) | herbicidal rating (Smartweed [3]; 4 WAT, 0.28 kg/h): 0 (0-24) | herbicidal rating (Smartweed [3]; 4 WAT, 1.12 kg/h): 2 (50-74) | herbicidal rating (Smartweed [3]; 4 WAT, 5.60 kg/h): 2 (50-74) | herbicidal rating (Smartweed [3]; 4 WAT, 11.2 kg/h): 2 (50-74) | herbicidal rating (Yellow Nutsedge [4]; 4 WAT): 0 (0-24) | herbicidal rating (Downy Brome [5]; 4 WAT, 0.28 kg/h): 2 (50-74) | herbicidal rating (Downy Brome [5]; 4 WAT, 1.12 kg/h): 1 (25-49) | herbicidal rating (Downy Brome [5]; 4 WAT, 5.60 kg/h): 2 (50-74) | herbicidal rating (Downy Brome [5]; 4 WAT, 11.2 kg/h): 1 (25-49) | herbicidal rating (Lambsquarters [6]; 4 WAT, 0.28 kg/h): 1 (25-49) | herbicidal rating (Lambsquarters [6]; 4 WAT, 1.12 kg/h): 2 (50-74) | herbicidal rating (Lambsquarters [6]; 4 WAT, 5.60 kg/h): 2 (50-74) | herbicidal rating (Lambsquarters [6]; 4 WAT, 11.2 kg/h): 3 (75-100) | herbicidal rating (Morningglory [7]; 4 WAT, 0.28 kg/h): 0 (0-24) | herbicidal rating (Morningglory [7]; 4 WAT, 1.12 kg/h): 2 (50-74) | herbicidal rating (Morningglory [7]; 4 WAT, 5.60 kg/h): 2 (50-74) | herbicidal rating (Morningglory [7]; 4 WAT, 11.2 kg/h): 1 (25-49) | herbicidal rating (Barnyardgrass [8]; 4 WAT, 0.28 kg/h): 2 (50-74) | herbicidal rating (Barnyardgrass [8]; 4 WAT, 1.12 kg/h): 2 (50-74) | herbicidal rating (Barnyardgrass [8]; 4 WAT, 5.60 kg/h): 3 (75-100) | herbicidal rating (Barnyardgrass [8]; 4 WAT, 11.2 kg/h): 3 (75-100) | herbicidal rating (Canada Thistle [9]; 4 WAT): 1 (25-49) | herbicidal rating (Cocklebur [10]; 4 WAT, 0.28 kg/h): 0 (0-24) | herbicidal rating (Cocklebur [10]; 4 WAT, 1.12 kg/h): 0 (0-24) | herbicidal rating (Cocklebur [10]; 4 WAT, 5.60 kg/h): 1 (25-49) | herbicidal rating (Cocklebur [10]; 4 WAT, 11.2 kg/h): 1 (25-49) | herbicidal rating (Velvetleaf [11]; 4 WAT, 0.28 kg/h): 0 (0-24) | herbicidal rating (Velvetleaf [11]; 4 WAT, 1.12 kg/h): 0 (0-24) | herbicidal rating (Velvetleaf [11]; 4 WAT, 5.60 kg/h): 1 (25-49) | herbicidal rating (Velvetleaf [11]; 4 WAT, 11.2 kg/h): 0 (0-24) | herbicidal rating (Johnsongrass [12]): 2 (50-74) | herbicidal rating (Quackgrass [13]): 0 (0-24) | herbicidal rating (Smartweed [14]): 1 (25-49) | herbicidal rating (Yellow Nutsedge [15]): 1 (25-49) | herbicidal rating (Downy Brome [16]): 0 (0-24) | herbicidal rating (Lambsquarters [17]): 1 (25-49) | herbicidal rating (Morningglory [18]): 2 (50-74) | herbicidal rating (Barnyardgrass [19]): 1 (25-49) | herbicidal rating (Canada Thistle [20]): 2 (50-74) | herbicidal rating (Cocklebur [21]): 2 (50-74) | herbicidal rating (Velvetleaf [22]): 1 (25-49)
